From US20140005197A1, “INHIBITORS OF INFLUENZA VIRUSES REPLICATION” (Vertex Pharmaceuticals Incorporated, priority 2010, published 2014)
pEC50, pIC50: −log10 of the molar value. Like-named read-outs stand apart in the source and are kept apart here.

Key:
influenza A virus = test: microbe, parasite or virus in culture; type: cell-based
[1] = test system: influenza A virus (A/PR/8/34); test: microbe, parasite or virus in culture; type: cell-based
influenza = test: Influenza Therapeutic Mouse Model; type: in vivo; settings: Balb/c mice, 30 mg/kg BID × 10 days, dosing @ 48 hours post infection
[2] = Influenza A virus, viral RNA 50% of control wells, 18-36 hours, mean all, read-out: bDNA EC50
[3] = Influenza A virus, PR/8, MDCK, 72 h, read-out: Flu, MDCK IC50
[4] = Influenza A virus, bDNA viral RNA assay, read-out: EC50
[5] = Influenza A virus, PR/8, MDCK, MDCK cells, A/PR/8/34, CPE assay, read-out: IC50
[6] = viral RNA 50% of control wells, 18-36 hours, mean all, read-out: bDNA EC50

Row | Structure (SMILES) | pEC50 (influenza A virus; [2]) | pIC50 [1, 3] | also measured
1 | O=C(O)[C@H]1C2CCC(CC2)[C@@H]1Nc1nc(-c2n[nH]c3ncc(Cl)cc23)c(F)cc1F (racemic) [Compound I-6, (2S,3S)-3-((6-(5-chloro-1H-pyrazolo[3,4-b]pyridin-3-yl)-3,5-difluoropyridin-2-yl)-amino)bicyclo[2.2.2]octane-2-carboxylate] | > 5.48 | > 5.48 | 
2 | O=C(O)[C@H]1C2CCC(CC2)[C@@H]1Nc1cncc(-c2n[nH]c3ncc(F)cc23)n1 (racemic) [Compound I-9, (+/−)-trans-(2,3)-3-((6-(5-fluoro-1H-pyrazolo[3,4-b]pyridin-3-yl)pyrazin-2-yl)amino)bicyclo[2.2.2]octane-2-carboxylic acid] | > 5.48 | > 5.48 | pEC50 (influenza A virus; [4]): 7.47; pIC50 [1, 5]: 7.77
3 | N#Cc1cc(F)c(N[C@H]2C3CCC(CC3)[C@@H]2C(=O)O)nc1-c1n[nH]c2ncc(F)cc12 (racemic) [Compound I-12] | > 5.48 | > 5.48 | 
4 | O=C(O)C1C2CCC(CC2)C1Nc1cnnc(-c2n[nH]c3ncc(F)cc23)n1 (racemic) [Compound I-17, (+/−)-trans-3-((3-(5-fluoro-1H-pyrazolo[3,4-b]pyridin-3-yl)-1,2,4-triazin-5-yl)amino)bicyclo[2.2.2]octane-2-carboxylic acid] | > 5.48 | > 5.48 | 
5 | N#Cc1cc(F)c(NC2C3CCC(CC3)C2C(=O)O)cc1-c1n[nH]c2ncc(F)cc12 (racemic) [Compound I-21, (+/−)-trans-3-((4-cyano-2-fluoro-5-(5-fluoro-1H-pyrazolo[3,4-b]pyridin-3-yl)phenyl)amino)bicyclo[2.2.2]octane-2-carboxylic acid] | > 5.48 | > 5.48 | 
6 | O=C(O)[C@H]1C2CCC(CC2)[C@@H]1Nc1nc(-c2n[nH]c3ncc(F)cc23)c(F)cc1F (stereo in doubt) [Compound I-5] | > 5.48 | > 5.48 | 
7 | O=C(O)[C@H]1C2CCC(CC2)[C@@H]1Nc1nc(-c2n[nH]c3ncc(F)cc23)ccc1F (stereo in doubt) [Compound I-7] | > 5.48 | > 5.48 | 
8 | CCOC(=O)[C@@H]1CCC[C@H](Nc2nc(-c3n[nH]c4ncc(F)cc34)c(F)cc2F)C1 [Compound I-1, (1R,3S)-ethyl 3-(3,5-difluoro-6-(5-fluoro-1H-pyrazolo[3,4-b]pyridin-3-yl)pyridin-2-ylamino)cyclohexanecarboxylate] | > 5.48 | > 5.48 | 
9 | O=C(O)[C@@H]1CCC[C@H](Nc2nc(-c3n[nH]c4ncc(F)cc34)c(F)cc2F)C1 [Compound I-2, (1R,3S)-3-(3,5-difluoro-6-(5-fluoro-1H-pyrazolo[3,4-b]pyridin-3-yl)pyridin-2-ylamino)cyclohexanecarboxylic acid] | > 5.48 | > 5.48 | 
10 | Cn1cnc(C(=O)N[C@@H]2CCC[C@H](Nc3nc(-c4n[nH]c5ncc(F)cc45)c(F)cc3F)C2)c1 [Compound I-3, N-((1R,3S)-3-(3,5-difluoro-6-(5-fluoro-1H-pyrazolo[3,4-b]pyridin-3-yl)pyridin-2-ylamino)cyclohexyl)-1-methyl-1H-imidazole-4-carboxamide] | > 5.48 | > 5.48 | 
11 | O=C(O)[C@H]1C2CCC(CC2)[C@@H]1Nc1nc(-c2n[nH]c3ncc(F)cc23)c(F)cc1F [Compound I-8, sodium (2S,3S)-3-(3,5-difluoro-6-(5-fluoro-1H-pyrazolo[3,4-b]pyridin-3-yl)pyridin-2-ylamino)bicyclo[2.2.2]octane-2-carboxylate] |  |  | pEC50 (influenza A virus; [4]): 8.15; pEC50 (influenza A virus; [6]): > 5.48; WBP (Penh; Day 6) (influenza; Whole Body Plethysmography, study day 6/7): 2.03; Percent Weight Loss (Day 8) (influenza; post challenge day 8): 20.8%; Percent Survival (influenza; survival scored for 21 days): 100%; pIC50 [1, 5]: 5.45
12 | O=C(O)[C@@H]1C2CCC(CC2)[C@H]1Nc1nc(-c2n[nH]c3ncc(F)cc23)ccc1F [Compound I-10] | > 5.48 |  | 
13 | O=C(O)[C@H]1C2CCC(CC2)[C@@H]1Nc1nc(-c2n[nH]c3ncc(F)cc23)ccc1F [Compound I-11, (2S,3S)-3-(3-fluoro-6-(5-fluoro-1H-pyrazolo[3,4-b]pyridin-3-yl)pyridin-2-ylamino)bicyclo[2.2.2]octane-2-carboxylic acid] |  |  | pEC50 (influenza A virus; [6]): > 5.48; pIC50 ([1]; read-out: Flu, MDCK IC50): > 5.48
14 | O=C(O)[C@@H]1C2CCC(CC2)[C@H]1Nc1cncc(-c2n[nH]c3ncc(F)cc23)n1 [Compound I-13, (2R,3R)-3-((6-(5-fluoro-1H-pyrazolo[3,4-b]pyridin-3-yl)pyrazin-2-yl)amino)bicyclo-[2.2.2]octane-2-carboxylic acid] | > 5.48 | > 5.48 | 
15 | O=C(O)[C@H]1C2CCC(CC2)[C@@H]1Nc1cncc(-c2n[nH]c3ncc(F)cc23)n1 [Compound I-14, (2S,3S)-3-((6-(5-fluoro-1H-pyrazolo[3,4-b]pyridin-3-yl)pyrazin-2-yl)amino)bicyclo-[2.2.2]octane-2-carboxylic acid] | > 5.48 | > 5.48 | 
16 | N#Cc1cc(F)c(N[C@H]2C3CCC(CC3)[C@@H]2C(=O)O)nc1-c1n[nH]c2ncc(F)cc12 [Compound I-15, (2S,3S)-3-((5-cyano-3-fluoro-6-(5-fluoro-1H-pyrazolo[3,4-b]pyridin-3-yl)pyridin-2-yl)amino)bicyclo[2.2.2]octane-2-carboxylic acid] | > 5.48 | > 5.48 | 
17 | N#Cc1cc(F)c(N[C@@H]2C3CCC(CC3)[C@H]2C(=O)O)nc1-c1n[nH]c2ncc(F)cc12 [Compound I-16] | > 5.48 | > 5.48 | 
18 | O=C(N[C@@H]1CCC[C@H](Nc2nc(-c3n[nH]c4ncc(F)cc34)c(F)cc2F)C1)c1csc(Cl)c1 [Compound I-18, 5-chloro-N-((1R,3S)-3-((3,5-difluoro-6-(5-fluoro-1H-pyrazolo[3,4-b]pyridin-3-yl)pyridin-2-yl)amino)cyclohexyl)thiophene-3-carboxamide] | > 5.48 | > 5.48 | 
19 | O=C(N[C@@H]1CCC[C@H](Nc2nc(-c3n[nH]c4ncc(F)cc34)c(F)cc2F)C1)c1ccsc1 [Compound I-19, N-((1R,3S)-3-((3,5-difluoro-6-(5-fluoro-1H-pyrazolo[3,4-b]pyridin-3-yl)pyridin-2-yl)amino)cyclohexyl)thiophene-3-carboxamide] | > 5.48 | > 5.48 | 
20 | N#Cc1cc(F)c(N[C@H]2C3CCC(CC3)[C@@H]2C(=O)O)cc1-c1n[nH]c2ncc(F)cc12 [Compound I-20] |  |  | pEC50 (influenza A virus; [6]): > 5.48; pIC50 ([1]; read-out: Flu, MDCK IC50): > 5.48
